Results published in patent US20230233569A1 (Revolution Medicines, Inc., priority 2020, published 2023).
Several values for one entry are separate records, joined by “and”; a condition that tells them apart may be missing. Equal values may be shown once. Read-outs that look alike come from different tables or passages of the source.

Tests used:
Experiment in all cases: Disruption of BRAF RBD interaction with Ras (FRET / MOA assay, with Cyclophilin A)
Format in all cases: biochemical
KRAS G12C = KRAS G12C (Homo sapiens, UniProt P01116+P62937, G12C)
Sequence of KRAS G12C (P01116 1-169 isoform P01116-2 G12C): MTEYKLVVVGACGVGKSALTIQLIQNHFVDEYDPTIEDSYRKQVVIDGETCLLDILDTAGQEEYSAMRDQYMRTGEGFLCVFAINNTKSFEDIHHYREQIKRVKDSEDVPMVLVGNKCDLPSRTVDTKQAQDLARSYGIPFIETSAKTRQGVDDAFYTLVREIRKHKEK
Sequence of KRAS G12C (P62937 whole entry): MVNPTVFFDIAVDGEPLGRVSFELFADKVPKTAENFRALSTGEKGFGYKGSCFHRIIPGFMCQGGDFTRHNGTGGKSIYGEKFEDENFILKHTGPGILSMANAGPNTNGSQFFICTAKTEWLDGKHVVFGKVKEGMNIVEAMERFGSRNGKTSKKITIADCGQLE
In short: (§1)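 Here, compound titrations (ten points, factor 3, from 30 μM final) act on nucleotide-bound K-Ras and Cyclophilin A, and ternary complex formation disrupts the RAF RBD interaction.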

KRAS G12D = KRAS G12D (Homo sapiens, UniProt P01116+P62937, G12D)
Sequence of KRAS G12D (P01116 1-169 isoform P01116-2 G12D limits assumed): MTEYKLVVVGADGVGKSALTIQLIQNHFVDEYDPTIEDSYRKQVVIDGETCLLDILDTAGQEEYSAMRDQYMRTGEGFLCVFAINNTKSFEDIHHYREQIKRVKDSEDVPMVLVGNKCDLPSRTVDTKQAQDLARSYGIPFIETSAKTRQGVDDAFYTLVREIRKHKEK
Sequence of KRAS G12D (P62937 whole entry): as the sequence (P62937 whole entry) above
In short: as §1

KRAS G12S = KRAS G12S (Homo sapiens, UniProt P01116+P62937, G12S)
Sequence of KRAS G12S (P01116 1-169 isoform P01116-2 G12S limits assumed): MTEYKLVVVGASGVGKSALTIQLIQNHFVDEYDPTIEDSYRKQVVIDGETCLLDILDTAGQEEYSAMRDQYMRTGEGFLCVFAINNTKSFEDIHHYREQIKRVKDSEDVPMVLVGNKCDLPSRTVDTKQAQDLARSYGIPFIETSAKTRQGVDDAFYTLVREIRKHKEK
Sequence of KRAS G12S (P62937 whole entry): as the sequence (P62937 whole entry) above
In short: as §1

KRAS G12V = KRAS G12V (Homo sapiens, UniProt P01116+P62937, G12V)
Sequence of KRAS G12V (P01116 1-169 isoform P01116-2 G12V limits assumed): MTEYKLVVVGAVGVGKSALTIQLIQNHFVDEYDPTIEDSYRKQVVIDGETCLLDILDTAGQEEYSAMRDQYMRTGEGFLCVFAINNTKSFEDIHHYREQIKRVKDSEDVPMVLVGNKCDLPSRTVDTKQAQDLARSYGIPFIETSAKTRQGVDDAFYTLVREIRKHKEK
Sequence of KRAS G12V (P62937 whole entry): as the sequence (P62937 whole entry) above
In short: as §1

KRAS G13C = KRAS G13C (Homo sapiens, UniProt P01116+P62937, G13C)
Sequence of KRAS G13C (P01116 1-169 isoform P01116-2 G13C): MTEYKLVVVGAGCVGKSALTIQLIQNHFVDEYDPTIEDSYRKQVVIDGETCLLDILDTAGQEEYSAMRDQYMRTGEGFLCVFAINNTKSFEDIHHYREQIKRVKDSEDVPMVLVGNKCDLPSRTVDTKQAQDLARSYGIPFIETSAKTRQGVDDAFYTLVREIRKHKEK
Sequence of KRAS G13C (P62937 whole entry): as the sequence (P62937 whole entry) above
In short: as §1

KRAS G13D = KRAS G13D (Homo sapiens, UniProt P01116+P62937, G13D)
Sequence of KRAS G13D (P01116 1-169 isoform P01116-2 G13D limits assumed): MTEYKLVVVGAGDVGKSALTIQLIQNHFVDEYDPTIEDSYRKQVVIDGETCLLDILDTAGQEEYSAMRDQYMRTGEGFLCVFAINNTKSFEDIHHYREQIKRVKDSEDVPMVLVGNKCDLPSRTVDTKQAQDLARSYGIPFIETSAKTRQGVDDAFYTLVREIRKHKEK
Sequence of KRAS G13D (P62937 whole entry): as the sequence (P62937 whole entry) above
In short: as §1

KRAS WT = KRAS WT (Homo sapiens, UniProt P01116+P62937)
Sequence of KRAS WT (P01116 1-169 isoform P01116-2 limits assumed): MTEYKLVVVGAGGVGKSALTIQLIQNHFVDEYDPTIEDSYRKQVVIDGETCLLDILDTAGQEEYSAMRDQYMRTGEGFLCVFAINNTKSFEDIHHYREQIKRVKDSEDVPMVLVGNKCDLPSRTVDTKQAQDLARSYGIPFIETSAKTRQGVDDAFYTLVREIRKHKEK
Sequence of KRAS WT (P62937 whole entry): as the sequence (P62937 whole entry) above
In short: as §1

NRAS G12C = NRAS G12C (Homo sapiens, UniProt P01111+P62937, G12C)
Sequence of NRAS G12C (P01111 whole entry G12C): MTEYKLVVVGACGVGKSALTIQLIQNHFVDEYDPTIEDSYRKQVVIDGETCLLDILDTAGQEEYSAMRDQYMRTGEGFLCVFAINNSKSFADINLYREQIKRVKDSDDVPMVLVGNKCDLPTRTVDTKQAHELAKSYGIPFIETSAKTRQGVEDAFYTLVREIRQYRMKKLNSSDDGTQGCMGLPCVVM
Sequence of NRAS G12C (P62937 whole entry): as the sequence (P62937 whole entry) above

NRAS Q61K = NRAS Q61K (Homo sapiens, UniProt P01111+P62937, Q61K); settings: NRAS Q61K; read-out: NRAS Q61K FRET data IC50
Sequence of NRAS Q61K (P01111 whole entry Q61K): as the sequence (P01111 whole entry G12C) above, with C12G, Q61K counted along it
Sequence of NRAS Q61K (P62937 whole entry): as the sequence (P62937 whole entry) above
In short: (§2)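 IC50 reflects compound-driven Ras:Cyclophilin A ternary complex displacing BRAF RBD, read as lowered TR-FRET ratio relative to DMSO after Eu anti-His (10 nM) and APC anti-GST (50 nM) detection for 1.5 h. Prior incubation 3 h, 25° C, with 12.5 nM GMPPNP-loaded Ras, 50 nM BRAF RBD, 25 μM Cyclophilin A; top compound 30 μM.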

NRAS Q61R = NRAS Q61R (Homo sapiens, UniProt P01111+P62937, Q61R); settings: NRAS Q61R; read-out: NRAS Q61R FRET data IC50
Sequence of NRAS Q61R (P01111 whole entry Q61R): as the sequence (P01111 whole entry G12C) above, with C12G, Q61R counted along it
Sequence of NRAS Q61R (P62937 whole entry): as the sequence (P62937 whole entry) above
In short: as §2

[1] = KRAS G12C, read-out: KRAS G12C FRET data IC50
[2] = read-out: KRAS G12D FRET data, IC50
[3] = read-out: KRAS G12S FRET data, IC50
[4] = KRAS G12V, read-out: KRAS G12V FRET data IC50
[5] = KRAS G13C, read-out: KRAS G13C FRET data IC50
[6] = KRAS G13D, read-out: KRAS G13D FRET data IC50
[7] = KRAS WT, read-out: KRAS WT FRET data IC50
[8] = NRAS G12C, read-out: NRAS G12C FRET data IC50
[9] = KRAS G12C FRET data IC50, KRAS G12C
[10] = KRAS G12V FRET data IC50, KRAS G12V
[11] = KRAS G13D FRET data IC50, KRAS G13D
[12] = KRAS WT FRET data IC50, KRAS WT
[13] = NRAS G12C FRET data IC50, NRAS G12C

| SMILES | IC50 (KRAS G12C; [1]) [nM] | IC50 (KRAS G12D; [2]) | IC50 (KRAS G12S; [3]) [nM] | IC50 (KRAS G12V; [4]) [nM] | IC50 (KRAS G13C; [5]) | IC50 (KRAS G13D; [6]) [nM] | IC50 (KRAS WT; [7]) [nM] | IC50 (NRAS G12C; [8]) [nM] | IC50 (NRAS Q61K) [nM] | IC50 (NRAS Q61R) [nM] | IC50 (KRAS G12C; [9]) | IC50 (KRAS G12D; KRAS G12D FRET data, IC50) [nM] | IC50 (KRAS G12S; KRAS G12S FRET data, IC50) [nM] | IC50 (KRAS G12V; [10]) [nM] | IC50 (KRAS G13C; KRAS G13C FRET data IC50, KRAS G13C) [nM] | IC50 (KRAS G13D; [11]) | IC50 (KRAS WT; [12]) [nM] | IC50 (NRAS G12C; [13]) |
| --- | --- | --- | --- | --- | --- | --- | --- | --- | --- | --- | --- | --- | --- | --- | --- | --- | --- | --- |
| CCn1c(-c2cccnc2[C@H](C)OC)c2c3cc(ccc31)-c1csc(n1)C[C@H](NC(=O)[C@H](C(C)C)N(C)C(=O)N(C)C1CN(C(=O)/C=C/C(C)(C)O)C1)C(=O)N1CCC[C@H](N1)C(=O)OCC(C)(C)C2 (atropisomer, axis not shown) [Example A350] | 10 to 100 | 1000 to 10000 nM | 100 to 1000 | 100 to 1000 | 100 to 1000 nM | 100 to 1000 | 100 to 1000 | 10 to 100 | 10 to 100 | 100 to 1000 |  |  |  |  |  |  |  |  |
| CCn1c(-c2cccnc2[C@H](C)OC)c2c3cc(ccc31)-c1cccc(c1)C[C@H](NC(=O)[C@H](C(C)C)N1CC[C@]3(CCN(C(=O)C#C[C@]4(N(C)C)CCOC4)C3)C1=O)C(=O)N1CCC[C@H](N1)C(=O)OCC(C)(C)C2 [Example A559] | 10 to 100 | 1000 to 10000 nM | 1000 to 10000 | 1000 to 10000 | 100 to 1000 nM | 1000 to 10000 | 1000 to 10000 | 10 to 100 | 1000 to 10000 | 1000 to 10000 |  |  |  |  |  |  |  |  |
| C=CS(=O)(=O)N1CC[C@H](C(=O)N(C)[C@H](C(=O)N[C@H]2Cc3nc(cs3)-c3ccc4c(c3)c(c(-c3cncnc3)n4CC)CC(C)(C)COC(=O)[C@@H]3CCCN(N3)C2=O)C(C)C)C1 [Example A170] | 1000 to 10000 | > 10000 nM | > 10000 | > 10000 | 1000 to 10000 nM | > 10000 | > 10000 | 1000 to 10000 | > 10000 | > 10000 |  |  |  |  |  |  |  |  |
| C=CC(=O)N1CCO[C@@]2(CCN(C(=O)N(C)[C@H](C(=O)N[C@H]3Cc4nc(cs4)-c4ccc5c(c4)c(c(-c4cccnc4[C@H](C)OC)n5CC(F)(F)F)CC(C)(C)COC(=O)C4CCCN(N4)C3=O)C(C)C)C2)C1 (some centres unmarked) [Example A594] |  |  |  |  |  |  |  |  | 10 to 100 | 10 to 100 | 10 to 100 nM | 100 to 1000 | 100 to 1000 | 100 to 1000 | 10 to 100 | 100 to 1000 nM | 10 to 100 | 10 to 100 nM |
| CCn1c(-c2cccnc2[C@H](C)OC)c2c3cc(ccc31)-c1cccc(c1)C[C@H](NC(=O)[C@@H](COC1CN(C(=O)C#C[C@@H]3COCCN3C)C1)C(C)C)C(=O)N1CCC[C@H](N1)C(=O)OCC(C)(C)C2 (atropisomer, axis not shown) [Example A648] | 100 to 1000 | > 10000 nM | > 10000 | > 10000 | 1000 to 10000 nM | > 10000 | 1000 to 10000 | 100 to 1000 | > 10000 | > 10000 |  |  |  |  |  |  |  |  |
| C=CC(=O)N1CCO[C@H]2CN(C(=O)N(C)[C@H](C(=O)N[C@H]3Cc4cccc(n4)-c4ccc5c(c4)c(c(-c4cccnc4[C@H](C)OC)n5CC(F)(F)F)CC(C)(C)COC(=O)C4CCCN(N4)C3=O)C(C)C)C[C@H]21 (some centres unmarked) [Example A595] | 10 to 100 | 1000 to 10000 nM | 1000 to 10000 | 1000 to 10000 | 10 to 100 nM | 1000 to 10000 | 100 to 1000 | 10 to 100 | 100 to 1000 | 100 to 1000 |  |  |  |  |  |  |  |  |
| C=CC(=O)N1CC[C@H](C(=O)N(C)[C@H](C(=O)N[C@H]2Cc3cc(O)cc(c3)-c3ccc4c(c3)c(c(-c3cc(C)cnc3[C@H](C)OC)n4CC)CC(C)(C)COC(=O)[C@@H]3CCCN(N3)C2=O)C(C)C)C1 [Example A167] |  | > 10000 nM and 100 to 1000 nM | 1000 to 10000 | 1000 to 10000 | 1000 to 10000 nM and 10 to 100 nM |  | 1000 to 10000 |  | 100 to 1000 | 100 to 1000 | 100 to 1000 nM and < 10 nM |  | 10 to 100 | 10 to 100 |  | 100 to 1000 nM and > 10000 nM | 10 to 100 | 100 to 1000 nM and < 10 nM |
| CC#CC(=O)N1CC[C@H](C(=O)N(C)[C@H](C(=O)N[C@H]2Cc3nc(cs3)-c3ccc4c(c3)c(c(-c3cccnc3[C@H](C)OC)n4CC)CC(C)(C)COC(=O)[C@@H]3CCCN(N3)C2=O)C(C)C)C1 [Example A168] | 100 to 1000 | > 10000 nM | 1000 to 10000 | 1000 to 10000 | 1000 to 10000 nM | > 10000 | 1000 to 10000 | 1000 to 10000 | 1000 to 10000 | 1000 to 10000 |  |  |  |  |  |  |  |  |
